The text below walks through data of patent publication EP4588908A1, “NEW PROSTACYCLIN FOR TREATING PULMONARY HYPERTENSION” (Shanghai Forefront Pharma Co., Ltd., priority 2023, dated 2025).

Series [1] is described as follows: Dissolution in water when preparing the test compound solutions. Type of series: physicochemical. The settings on record: pure water; 0.6 mg/mL and 1.2 mg/mL gave transparent solution. The protocol:
(§1) According to the concentration of 0.6 mg/mL and 1.2 mg/mL (3-mg/kg/day and 6-mg/kg/day dose groups), appropriate amounts of the test compound were weighed and dissolved in corresponding volume of pure water by shaking to obtain transparent solution, respectively; • (2) The resulting solutions were stored in a 4°C refrigerator. Remove and equilibrate to room temperature before use;

In series [2] the test system is male Sprague-Dawley rats. Kind of series: Fulton index measurement RV/(LV+S) in MCT-modelled PAH rats. Type of series: in vivo. The protocol: (§2) Twenty-eight 7-week-old male Sprague-Dawley rats (average weight of 200-250 g) were purchased from Vital River and were raised at the experimental site for 1 week of acclimatization (temperature 20°C-26°C, humidity 30%-70%, light-dark cycle ratio 1:1) until they were 8 weeks old.
(§3) Twenty-eight rats were randomized into the following 6 groups, including dosing groups, positive control groups, a negative control group and a healthy control group, and each was marked with ear tags.
(§4) • (1) Preparation of monocrotaline (MCT) solution: An adequate amount of MCT was weighed into a 50 mL solution of 20% ethanol-normal saline. After gentle shaking, the solution was transferred to a 50-mL centrifuge tube, and placed tilted in a thermostatic shaker at 37°C, 220 rpm for 12-14 hours to fully dissolve until no visible crystalline particles observed. • (2) Injection of MCT solution: The skin on the dorsal cervical region of the rats was gently lifted, MCT solution was subcutaneously injected at a dose of 60 mg/kg using a 1-mL syringe and the day was recorded as Day 0. • (3) Healthy control: The same volume of normal saline was injected in the same manner.
as §1
(§5) Starting from Day 14, the rats were weighed daily, and the corresponding solutions (test compound or normal saline) were administered intragastrically according to the grouping protocol until Day 27, for a total of 14 days; the intragastric dose was 0.5 mL/100 g, and the body weight and survival data of the rats were recorded.
The tube was shaken upside down 6-8 times to mix; • (3) The lungs and heart were exposed by further opening the chest cavity; • (4) The left atrial appendage was cut open, a tube of heparinized saline was slowly injected using a 5-mL syringe into the right atrial appendage to flush the pulmonary vessels; • (5) The rat heart, lung, liver, spleen and kidney tissues were kept and frozen, and fixed with formaldehyde solution.
After separating the heart, the non-ventricular parts (such as the atria, blood vessels, and valve rings) were cut off. The intraventricular thrombus was removed as much as possible using forceps. The right ventricle (RV) and left ventricle (LV) + ventricular septum (LV+S) were separated by cutting along tense junction between the RV and interventricular septum (S) using straight scissors. The tissues were dried with gauze and weighed separately. RV/(LV+S) was calculated as the Fulton index. [drawing 107]

Series [3] relates to male Sprague-Dawley rats. Put plainly: Hemodynamic measurement (RVSP by right cardiac catheterization) in MCT-modelled PAH rats. In kind it is in vivo. The protocol:
as §2, §3, §4, §1, §5
On Day 28, the hemodynamic status of the rats was assessed using right cardiac catheterization: • (1) The PE-50 catheter, pressure transducer and pressure measuring workstation were prepared; the tubing was rinsed with heparinized saline to ensure that no bubbles remained in the tubing; the catheter was corrected to zero; • (2) The rats were anesthetized with 2% isoflurane at a flow rate of 2 L/min, and their limbs and incisors were fixed on the operating table with the cranial end to the operator; • (3) The fur on the surgical area of cervical region was shaved; • (4) The cervical skin was cut along the midline, pulled and fixed using hemostats, and the tissue was separated layer by layer using scissors to expose the right internal jugular vein; • (5) The internal jugular vein was bluntly dissected and isolated using hemostats; • (6) The distal end of the internal jugular vein was ligated using 4-0 sutures, and a suture was passed through the proximal end for later use; • (7) A V-shaped incision was made in the internal jugular vein using ophthalmic scissors, and a PE-50 catheter was inserted through the incision. After the catheter was placed, the pre-placed suture at the proximal end of the internal jugular vein was ligated to secure the catheter; • (8) The catheter reached the right atrium and right ventricle in turn; the right atrial pressure and right ventricular pressure were recorded; at least 5 stable waveforms were recorded at each site; 5 continuous waveforms were taken as segments, and more than 2 segments were intercepted to calculate the right ventricular systolic pressure (RVSP); • (9) The PE-50 catheter was removed and the examination was completed.

Setting [4] is: 3 mg/kg/day intragastric from Day 14, MCT 60 mg/kg rats, RV/(LV+S), negative control 0.61, healthy control 0.29.
Where [5] appears, read: 6 mg/kg/day intragastric from Day 14, MCT 60 mg/kg rats, RV/(LV+S), negative control 0.61, healthy control 0.29.
[6] abbreviates: 3 mg/kg/day intragastric from Day 14, MCT 60 mg/kg rats, negative control 63±7.34, healthy control 22±2.41.
Where [7] appears, read: 6 mg/kg/day intragastric from Day 14, MCT 60 mg/kg rats, negative control 63±7.34, healthy control 22±2.41.
The mark [8] stands for this setting: 60(30mpk bid) mg/kg/day, Group 7, same experimental method.

SMILES strings stand for the structures.

Consider `CCCCC[C@H](O)CC[C@H]1[C@H](O)[C@@H](CC)[C@@H]2Cc3c(cccc3OCC(=O)O)C[C@@H]21` [Compound 1], for which the Solubility in water result in series [1] is on record as “can be directly dissolved in water”. Further, the Fulton index in series [2] (setting [4]) is 0.37 ± 0.12; in series [2] (3 mg/kg/day intragastric from Day 14, MCT 60 mg/kg rats, RV/(LV+S), negative control 0.61, healthy control 0.29, listed as Compound 1M) it was 0.37+0.12; in series [2] (setting [5]), 0.25 ± 0.27; in series [2] (6 mg/kg/day intragastric from Day 14, MCT 60 mg/kg rats, RV/(LV+S), negative control 0.61, healthy control 0.29, listed as Compound 1H) it was 0.25±0.27. For the same compound, the “RVSP mmHg” value in series [3] (setting [6]) is reported as 41 ± 16.27 mmHg; in series [3] (3 mg/kg/day intragastric from Day 14, MCT 60 mg/kg rats, negative control 63±7.34, healthy control 22±2.41, listed as Compound 1M), 41±16.27 mmHg; in series [3] (setting [7]), 22 ± 4.36 mmHg; in series [3] (6 mg/kg/day intragastric from Day 14, MCT 60 mg/kg rats, negative control 63±7.34, healthy control 22±2.41, listed as Compound 1H), 22+4.36 mmHg.
On to `CCCCC[C@H](O)CC[C@@H]1[C@H]2Cc3cccc(OCC(=O)O)c3C[C@H]2C[C@H]1O` [Compound C1, Treprostinil sodium 5.5-hydrate], for which, in series [1], the Solubility in water entry is “can be directly dissolved in water”. The Fulton index in series [2] (setting [4]) was 0.38 ± 0.10; in series [2] (3 mg/kg/day intragastric from Day 14, MCT 60 mg/kg rats, RV/(LV+S), negative control 0.61, healthy control 0.29, listed as Compound C1M), 0.38+0.10; in series [2] (setting [5]), 0.37 ± 0.07; in series [2] (6 mg/kg/day intragastric from Day 14, MCT 60 mg/kg rats, RV/(LV+S), negative control 0.61, healthy control 0.29, listed as Compound C1H) it was 0.37+0.07. Further, the “RVSP mmHg” value in series [3] (setting [6]) is recorded as 46 ± 13.45 mmHg; in series [3] (3 mg/kg/day intragastric from Day 14, MCT 60 mg/kg rats, negative control 63±7.34, healthy control 22±2.41, listed as Compound C1M) it was 46+13.45 mmHg; in series [3] (setting [7]), 38 ± 8.86 mmHg; in series [3] (6 mg/kg/day intragastric from Day 14, MCT 60 mg/kg rats, negative control 63±7.34, healthy control 22±2.41, listed as Compound C1H), 38+8.86 mmHg.
Regarding `O=C(O)COC[C@H]1CC[C@H](COC(=O)N(c2ccccc2)c2ccc(Cl)cc2)CC1` [Ralinepag], the Fulton index in series [2] (setting [8]) was 0.35. In series [3] (setting [8]), the “RVSP mmHg” value is recorded as 22 mmHg.
